From PMC11345841, “Exploring 2-Sulfonylpyrimidine Warheads as Acrylamide Surrogates for Targeted Covalent Inhibition: A BTK Story” (Journal of Medicinal Chemistry, 2024)
Read-outs that look alike come from different tables or passages of the source.

What was measured:
Assay in all cases: KINOMEscan ScanTK
Format in all cases: binding
[1] = target: T1, JAK2(JH1domain-catalytic) (Homo sapiens, UniProt O60674)
T1 construct: JAK2(JH1domain-catalytic); purchased Eurofins DiscoverX KINOMEscan (scanTK)

KIT-autoinhibited = target: T2, KIT-autoinhibited (Homo sapiens, UniProt P10721)
T2 construct: purchased Eurofins DiscoverX KINOMEscan (scanTK)
T2 sequence (P10721 26-976): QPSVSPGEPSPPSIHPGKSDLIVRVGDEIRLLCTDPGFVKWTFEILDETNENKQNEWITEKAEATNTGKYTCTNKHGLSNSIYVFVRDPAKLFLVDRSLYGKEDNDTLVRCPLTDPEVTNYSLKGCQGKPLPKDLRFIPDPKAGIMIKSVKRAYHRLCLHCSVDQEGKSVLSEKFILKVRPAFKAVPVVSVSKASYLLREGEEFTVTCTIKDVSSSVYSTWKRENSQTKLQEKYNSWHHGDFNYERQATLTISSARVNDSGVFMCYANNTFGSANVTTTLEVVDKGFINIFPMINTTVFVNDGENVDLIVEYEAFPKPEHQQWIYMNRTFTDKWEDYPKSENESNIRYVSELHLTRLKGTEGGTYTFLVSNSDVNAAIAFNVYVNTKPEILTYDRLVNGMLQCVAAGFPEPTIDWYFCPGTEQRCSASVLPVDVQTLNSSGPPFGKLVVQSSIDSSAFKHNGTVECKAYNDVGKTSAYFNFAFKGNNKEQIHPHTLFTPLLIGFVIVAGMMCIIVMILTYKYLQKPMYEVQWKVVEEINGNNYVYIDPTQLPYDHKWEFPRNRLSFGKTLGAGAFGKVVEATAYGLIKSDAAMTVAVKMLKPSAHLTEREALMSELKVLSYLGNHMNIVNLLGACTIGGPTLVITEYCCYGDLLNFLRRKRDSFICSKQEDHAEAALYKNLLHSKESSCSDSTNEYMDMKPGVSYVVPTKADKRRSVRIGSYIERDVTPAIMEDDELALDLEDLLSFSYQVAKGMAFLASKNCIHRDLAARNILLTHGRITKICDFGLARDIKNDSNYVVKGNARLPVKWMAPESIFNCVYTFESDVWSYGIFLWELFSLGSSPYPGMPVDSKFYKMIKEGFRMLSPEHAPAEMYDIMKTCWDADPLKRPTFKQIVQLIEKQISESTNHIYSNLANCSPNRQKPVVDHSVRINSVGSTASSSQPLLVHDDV

KIT(D816V) = target: T3, KIT(D816V) (Homo sapiens, UniProt P10721, D816V)
T3 construct: purchased Eurofins DiscoverX KINOMEscan (scanTK)

[2] = target: T4, ABL1(F317I)-phosphorylated (Homo sapiens, UniProt P00519, F317I)
T4 construct: purchased Eurofins DiscoverX KINOMEscan (scanTK)

PDGFRB = target: T5, PDGFRB (Homo sapiens, UniProt P09619)
T5 construct: purchased Eurofins DiscoverX KINOMEscan (scanTK)

FAK = target: T6, FAK (Homo sapiens, UniProt Q05397)
T6 construct: purchased Eurofins DiscoverX KINOMEscan (scanTK)
T6 sequence (Q05397 whole entry): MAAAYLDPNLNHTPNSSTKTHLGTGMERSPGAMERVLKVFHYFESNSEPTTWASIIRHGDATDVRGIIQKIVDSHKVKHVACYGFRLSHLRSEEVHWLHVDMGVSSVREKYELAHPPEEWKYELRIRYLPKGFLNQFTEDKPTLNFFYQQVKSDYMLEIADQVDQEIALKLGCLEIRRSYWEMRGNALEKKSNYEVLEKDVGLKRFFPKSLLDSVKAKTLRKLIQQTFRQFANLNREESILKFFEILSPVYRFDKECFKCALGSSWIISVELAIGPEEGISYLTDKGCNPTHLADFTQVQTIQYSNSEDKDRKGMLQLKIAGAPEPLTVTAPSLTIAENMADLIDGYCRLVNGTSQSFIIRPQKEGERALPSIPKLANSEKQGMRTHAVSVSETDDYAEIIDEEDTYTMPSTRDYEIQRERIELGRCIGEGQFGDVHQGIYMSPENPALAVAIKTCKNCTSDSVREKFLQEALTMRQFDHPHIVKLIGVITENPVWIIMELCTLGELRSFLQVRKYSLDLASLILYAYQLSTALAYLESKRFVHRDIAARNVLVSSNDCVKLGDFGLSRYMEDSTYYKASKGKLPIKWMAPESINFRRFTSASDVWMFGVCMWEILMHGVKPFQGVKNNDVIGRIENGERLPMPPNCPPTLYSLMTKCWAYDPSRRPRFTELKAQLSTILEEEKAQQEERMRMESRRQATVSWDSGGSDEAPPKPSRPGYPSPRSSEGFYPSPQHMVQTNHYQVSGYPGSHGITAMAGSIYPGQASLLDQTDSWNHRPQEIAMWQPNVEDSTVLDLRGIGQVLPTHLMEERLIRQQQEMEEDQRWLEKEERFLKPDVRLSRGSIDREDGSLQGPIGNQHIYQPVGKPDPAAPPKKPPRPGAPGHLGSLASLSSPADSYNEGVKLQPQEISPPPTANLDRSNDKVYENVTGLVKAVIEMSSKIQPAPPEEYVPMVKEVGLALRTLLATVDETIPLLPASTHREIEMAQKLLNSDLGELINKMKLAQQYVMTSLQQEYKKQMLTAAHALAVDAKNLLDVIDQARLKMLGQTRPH

ITK = target: T7, ITK (Homo sapiens, UniProt Q08881)
T7 construct: purchased Eurofins DiscoverX KINOMEscan (scanTK)
T7 sequence (Q08881 1-620): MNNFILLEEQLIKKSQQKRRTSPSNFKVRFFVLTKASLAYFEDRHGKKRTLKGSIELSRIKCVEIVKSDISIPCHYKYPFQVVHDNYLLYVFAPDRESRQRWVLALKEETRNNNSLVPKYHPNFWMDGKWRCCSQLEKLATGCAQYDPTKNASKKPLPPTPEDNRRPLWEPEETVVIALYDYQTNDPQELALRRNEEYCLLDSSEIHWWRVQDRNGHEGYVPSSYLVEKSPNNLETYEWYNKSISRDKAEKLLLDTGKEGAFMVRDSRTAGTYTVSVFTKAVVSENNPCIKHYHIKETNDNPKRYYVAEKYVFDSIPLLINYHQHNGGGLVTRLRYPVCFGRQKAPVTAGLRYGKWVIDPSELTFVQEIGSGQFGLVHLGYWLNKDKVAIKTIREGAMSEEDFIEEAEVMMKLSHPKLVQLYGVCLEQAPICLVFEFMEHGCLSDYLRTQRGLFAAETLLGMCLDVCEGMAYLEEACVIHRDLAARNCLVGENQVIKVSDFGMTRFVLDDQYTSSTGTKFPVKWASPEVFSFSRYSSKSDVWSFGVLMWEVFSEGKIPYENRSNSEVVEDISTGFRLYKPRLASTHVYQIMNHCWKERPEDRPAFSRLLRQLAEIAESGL

SYK = target: T8, SYK (Homo sapiens, UniProt P43405)
T8 construct: purchased Eurofins DiscoverX KINOMEscan (scanTK)

EGFR(E746-A750del) = target: T9, EGFR(E746-A750del) (Homo sapiens, UniProt P00533, DEL746-750)
T9 construct: purchased Eurofins DiscoverX KINOMEscan (scanTK)
T9 sequence (P00533 with tags, fused parts or gaps DEL746-750 limits assumed): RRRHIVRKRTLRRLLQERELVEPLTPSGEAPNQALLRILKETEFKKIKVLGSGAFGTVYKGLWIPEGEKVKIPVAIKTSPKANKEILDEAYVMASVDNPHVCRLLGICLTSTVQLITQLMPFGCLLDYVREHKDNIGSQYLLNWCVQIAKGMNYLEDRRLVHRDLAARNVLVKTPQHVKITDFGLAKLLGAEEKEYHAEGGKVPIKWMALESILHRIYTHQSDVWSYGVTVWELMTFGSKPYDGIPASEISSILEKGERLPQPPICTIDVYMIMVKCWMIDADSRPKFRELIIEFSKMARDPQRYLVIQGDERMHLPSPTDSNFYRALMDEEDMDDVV

[3] = target: T10, ABL1(T315I)-nonphosphorylated (Homo sapiens, UniProt P00519, T315I)
T10 construct: purchased Eurofins DiscoverX KINOMEscan (scanTK)

KIT(L576P) = target: T11, KIT(L576P) (Homo sapiens, UniProt P10721, L576P)
T11 construct: purchased Eurofins DiscoverX KINOMEscan (scanTK)
T11 sequence (P10721 26-976 L576P): as the sequence (P10721 26-976) above, with L551P counted along it

SRMS = target: T12, SRMS (Homo sapiens, UniProt Q9H3Y6); conditions: SRMS
T12 construct: purchased Eurofins DiscoverX KINOMEscan (scanTK)

EGFR = target: T13, EGFR (Homo sapiens, UniProt P00533)
T13 construct: purchased Eurofins DiscoverX KINOMEscan (scanTK)
T13 sequence (P00533 25-1210): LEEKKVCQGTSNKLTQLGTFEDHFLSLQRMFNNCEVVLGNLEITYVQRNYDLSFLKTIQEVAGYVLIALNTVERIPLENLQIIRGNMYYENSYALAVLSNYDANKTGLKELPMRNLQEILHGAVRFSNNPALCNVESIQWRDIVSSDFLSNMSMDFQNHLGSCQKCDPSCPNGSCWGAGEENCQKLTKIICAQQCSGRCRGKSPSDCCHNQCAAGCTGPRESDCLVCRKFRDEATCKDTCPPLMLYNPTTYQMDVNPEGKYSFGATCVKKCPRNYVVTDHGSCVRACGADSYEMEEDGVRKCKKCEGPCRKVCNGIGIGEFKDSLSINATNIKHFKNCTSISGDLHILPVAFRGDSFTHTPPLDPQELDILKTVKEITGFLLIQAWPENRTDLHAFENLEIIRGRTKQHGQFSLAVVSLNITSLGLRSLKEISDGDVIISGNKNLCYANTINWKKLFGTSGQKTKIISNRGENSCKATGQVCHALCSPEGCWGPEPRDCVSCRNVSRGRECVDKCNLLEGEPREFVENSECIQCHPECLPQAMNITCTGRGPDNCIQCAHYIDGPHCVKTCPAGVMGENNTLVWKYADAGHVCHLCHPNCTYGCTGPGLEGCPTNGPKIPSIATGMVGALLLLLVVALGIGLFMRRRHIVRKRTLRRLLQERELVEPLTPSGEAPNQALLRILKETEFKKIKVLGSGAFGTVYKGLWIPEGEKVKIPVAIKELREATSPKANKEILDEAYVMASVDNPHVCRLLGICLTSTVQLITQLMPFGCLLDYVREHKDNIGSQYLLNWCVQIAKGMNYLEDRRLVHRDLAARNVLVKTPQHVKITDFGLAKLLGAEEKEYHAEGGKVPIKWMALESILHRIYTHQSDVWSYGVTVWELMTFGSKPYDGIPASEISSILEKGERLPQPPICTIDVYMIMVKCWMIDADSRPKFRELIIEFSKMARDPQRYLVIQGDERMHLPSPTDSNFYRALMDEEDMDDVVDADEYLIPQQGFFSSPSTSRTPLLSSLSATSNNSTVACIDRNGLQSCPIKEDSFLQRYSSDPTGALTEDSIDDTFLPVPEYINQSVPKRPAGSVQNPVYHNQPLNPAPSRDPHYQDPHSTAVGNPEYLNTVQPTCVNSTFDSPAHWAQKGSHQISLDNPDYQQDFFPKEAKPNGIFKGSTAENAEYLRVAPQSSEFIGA

[4] = target: T14, JAK1(JH2domain-pseudokinase) (Homo sapiens, UniProt P23458)
T14 construct: JAK1(JH2domain-pseudokinase); purchased Eurofins DiscoverX KINOMEscan (scanTK)

[5] = target: T15, EGFR(L747-S752del, P753S) (Homo sapiens, UniProt P00533, DEL747-752/P753S)
T15 construct: purchased Eurofins DiscoverX KINOMEscan (scanTK)
T15 sequence (P00533 with tags, fused parts or gaps DEL747-752/P753S limits assumed): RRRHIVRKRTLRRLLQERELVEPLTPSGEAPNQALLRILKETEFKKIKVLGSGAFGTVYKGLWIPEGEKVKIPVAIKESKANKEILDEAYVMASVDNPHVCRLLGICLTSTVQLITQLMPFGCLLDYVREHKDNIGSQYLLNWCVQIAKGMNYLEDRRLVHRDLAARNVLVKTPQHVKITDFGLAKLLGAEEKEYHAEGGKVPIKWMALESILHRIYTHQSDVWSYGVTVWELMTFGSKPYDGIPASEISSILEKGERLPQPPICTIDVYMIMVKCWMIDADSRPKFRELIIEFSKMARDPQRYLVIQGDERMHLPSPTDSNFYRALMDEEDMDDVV

EGFR(L858R,T790M) = target: T16, EGFR(L858R,T790M) (Homo sapiens, UniProt P00533, L858R/T790M)
T16 construct: purchased Eurofins DiscoverX KINOMEscan (scanTK)
T16 sequence (P00533 25-1210 T790M/L858R): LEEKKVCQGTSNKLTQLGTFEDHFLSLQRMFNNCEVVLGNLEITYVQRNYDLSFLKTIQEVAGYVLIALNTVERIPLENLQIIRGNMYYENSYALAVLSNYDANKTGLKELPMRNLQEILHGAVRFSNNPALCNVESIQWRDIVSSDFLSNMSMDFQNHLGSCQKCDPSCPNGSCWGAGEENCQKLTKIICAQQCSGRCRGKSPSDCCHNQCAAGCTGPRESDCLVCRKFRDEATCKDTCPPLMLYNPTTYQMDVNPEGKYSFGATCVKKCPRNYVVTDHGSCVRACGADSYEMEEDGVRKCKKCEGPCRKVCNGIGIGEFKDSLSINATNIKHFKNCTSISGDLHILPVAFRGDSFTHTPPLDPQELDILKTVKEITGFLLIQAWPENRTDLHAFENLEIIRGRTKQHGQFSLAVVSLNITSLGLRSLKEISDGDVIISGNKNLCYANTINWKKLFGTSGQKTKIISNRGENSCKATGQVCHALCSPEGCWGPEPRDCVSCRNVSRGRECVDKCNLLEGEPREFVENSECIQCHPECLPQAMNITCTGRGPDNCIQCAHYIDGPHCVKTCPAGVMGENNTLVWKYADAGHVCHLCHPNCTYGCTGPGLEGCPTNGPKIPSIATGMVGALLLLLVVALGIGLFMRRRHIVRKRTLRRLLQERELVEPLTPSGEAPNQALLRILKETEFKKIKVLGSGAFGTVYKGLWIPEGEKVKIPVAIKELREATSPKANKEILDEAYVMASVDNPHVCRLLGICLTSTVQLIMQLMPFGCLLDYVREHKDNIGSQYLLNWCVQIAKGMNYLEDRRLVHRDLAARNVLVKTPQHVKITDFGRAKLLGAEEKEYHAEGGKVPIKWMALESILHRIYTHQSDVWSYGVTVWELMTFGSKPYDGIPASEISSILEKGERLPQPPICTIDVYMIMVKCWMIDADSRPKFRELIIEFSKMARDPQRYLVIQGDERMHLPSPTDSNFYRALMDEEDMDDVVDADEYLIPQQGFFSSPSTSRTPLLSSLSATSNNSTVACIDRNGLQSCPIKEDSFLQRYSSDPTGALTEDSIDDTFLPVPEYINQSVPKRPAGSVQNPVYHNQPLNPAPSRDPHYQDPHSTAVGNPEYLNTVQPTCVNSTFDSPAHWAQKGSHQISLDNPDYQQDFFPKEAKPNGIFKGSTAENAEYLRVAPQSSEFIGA

YES = target: T17, YES (Homo sapiens, UniProt P07947)
T17 construct: purchased Eurofins DiscoverX KINOMEscan (scanTK)

INSRR = target: T18, INSRR (Homo sapiens, UniProt P14616)
T18 construct: purchased Eurofins DiscoverX KINOMEscan (scanTK)

[6] = target: T19, JAK1(JH1domain-catalytic) (Homo sapiens, UniProt P23458)
T19 construct: JAK1(JH1domain-catalytic); purchased Eurofins DiscoverX KINOMEscan (scanTK)

## COC(=O)c1cnc(S(C)(=O)=O)nc1N1CCCC(n2nc(-c3ccc(Oc4ccccc4)cc3)c3c(N)ncnc32)C1 (stereo not drawn) [Compound 8b, Methyl 4-(3-(4-Amino-3-(4-phenoxyphenyl)-1H-pyrazolo[3,4-d]pyrimidin-1-yl)piperidin-1-yl)-2-(methylsulfonyl)pyrimidine-5-carboxylate]
[1]; @1000nM
  difference in %Control vs compound Ib at 1 µM: -18%
[1]; @1000nM, read-out: %Control
  remaining binding at 1 µM: 82%
[1]; read-out: %Control @1000nM
  remaining binding at 1 µM: 82%
KIT-autoinhibited; @1000nM, read-out: %Control
  remaining binding at 1 µM: 90%
KIT-autoinhibited; read-out: %Control @1000nM
  remaining binding at 1 µM: 90%
KIT(D816V); @1000nM, read-out: %Control
  remaining binding at 1 µM: 85%
KIT(D816V); read-out: %Control @1000nM
  remaining binding at 1 µM: 85%
[2]; @1000nM
  difference in %Control from reference compound Ib at 1 µM: 6%
[2]; @1000nM, read-out: %Control
  remaining binding at 1 µM: 79%
[2]; read-out: %Control @1000nM
  remaining binding at 1 µM: 79%
PDGFRB; @1000nM, read-out: %Control
  remaining binding at 1 µM: 68%
PDGFRB; read-out: %Control @1000nM
  remaining binding at 1 µM: 68%
FAK; @1000nM
  difference in %Control versus compound Ib at 1 µM: 0%
FAK; @1000nM, read-out: %Control
  remaining binding at 1 µM: 100%
FAK; read-out: %Control @1000nM
  remaining binding at 1 µM: 100%
ITK; @1000nM, ITK
  difference in %Control versus compound Ib at 1 µM: 56%
ITK; @1000nM, ITK, read-out: %Control
  remaining binding at 1 µM: 71%
ITK; ITK, read-out: %Control @1000nM
  remaining binding at 1 µM: 71%
ITK; ScanTK, 1 μM
  inhibition at 1 µM: 29%
SYK; @1000nM
  difference in %Control versus compound Ib at 1 µM: -13%
SYK; @1000nM, read-out: %Control
  remaining binding at 1 µM: 78%
SYK; read-out: %Control @1000nM
  remaining binding at 1 µM: 78%
EGFR(E746-A750del); @1000nM
  difference in %Control from reference compound Ib at 1 µM: 73%
EGFR(E746-A750del); @1000nM, read-out: %Control
  remaining binding at 1 µM: 84%
EGFR(E746-A750del); read-out: %Control @1000nM
  remaining binding at 1 µM: 84%
[3]; @1000nM
  difference in % of control versus compound Ib at 1 µM: -17%
[3]; @1000nM, read-out: %Control
  remaining binding at 1 µM: 76%
[3]; read-out: %Control @1000nM
  remaining binding at 1 µM: 76%
KIT(L576P); @1000nM, read-out: % difference (compound - Ib %Control)
  difference in %Control versus Ib at 1 µM: 24%
KIT(L576P); @1000nM, read-out: %Control
  remaining binding at 1 µM: 56%
KIT(L576P); read-out: %Control @1000nM
  remaining binding at 1 µM: 56%
SRMS; @1000nM, read-out: %Control
  remaining binding at 1 µM: 27%
SRMS; read-out: %Control @1000nM
  remaining binding at 1 µM: 27%
EGFR; @1000nM, EGFR
  difference in %Control versus reference compound Ib at 1 µM: 32.8%
EGFR; @1000nM, EGFR, read-out: %Control
  remaining binding at 1 µM: 33%
EGFR; EGFR, read-out: %Control @1000nM
  remaining binding at 1 µM: 33%
EGFR; ScanTK, 1 μM, WT EGFR
  inhibition at 1 µM: 67%
[4]; @1000nM
  %Control difference versus compound Ib at 1 µM: 4%
[4]; @1000nM, read-out: %Control
  remaining binding at 1 µM: 99%
[4]; read-out: %Control @1000nM
  remaining binding at 1 µM: 99%
[5]; @1000nM
  difference in %Control versus compound Ib at 1 µM: 89.5%
[5]; @1000nM, read-out: %Control
  remaining binding at 1 µM: 95%
[5]; read-out: %Control @1000nM
  remaining binding at 1 µM: 95%
EGFR(L858R,T790M); @1000nM
  difference in % of control versus compound Ib at 1 µM: 69%
EGFR(L858R,T790M); @1000nM, read-out: %Control
  remaining binding at 1 µM: 79%
EGFR(L858R,T790M); read-out: %Control @1000nM
  remaining binding at 1 µM: 79%
YES; @1000nM, read-out: %Control
  remaining binding at 1 µM: 16%
YES; read-out: %Control @1000nM
  remaining binding at 1 µM: 16%
INSRR; @1000nM
  difference in %Control versus compound Ib at 1 µM: 0%
INSRR; @1000nM, read-out: %Control
  remaining binding at 1 µM: 96%
INSRR; read-out: %Control @1000nM
  remaining binding at 1 µM: 96%
[6]; @1000nM
  difference in %Control versus compound Ib at 1 µM: 3%
[6]; @1000nM, read-out: %Control
  remaining binding at 1 µM: 97%
[6]; read-out: %Control @1000nM
  remaining binding at 1 µM: 97%
